One assay deals with Dipeptidyl peptidase 4 (Sus scrofa, UniProt P22411). Briefly: Inhibition of pig kidney DPP4 by spectrophotometric method.
Assay [1] concerns Rattus norvegicus. Briefly: Antidiabetic activity in ZDF rat diabetic model assessed as increase in insulin release at 44 mg/kg, po administered BID for 6 weeks by sandwich ELISA. The format is functional, organism-based. Set-up: dose 44 mg/kg. (In general: ELISA stands for enzyme-linked immunosorbent assay.)
Assay [2] concerns Rattus norvegicus. In words: Antidiabetic activity in n5-STZ rat diabetic model assessed as decrease in glucose AUC at 44 mg/kg, po administered as single dose by OGTT.
Assay [3] relates to Rattus norvegicus. In words: Antidiabetic activity in n5-STZ rat diabetic model assessed as decrease in glucose excursion at 44 mg/kg, po administered as single dose by OGTT.
For assay [4], the system named is Rattus norvegicus. In words: Inhibition of DPP4 in n5-STZ rat at 22 mg/kg, po administered as single dose after 4 hrs relative to vehicle treated control.
Assay [5] relates to Rattus norvegicus. Briefly: Antidiabetic activity in ZDF rat diabetic model assessed as decrease in glucose excursion at 44 mg/kg, po administered BID for 6 weeks by OGTT. Type of assay: functional, organism-based. More on the design: dose 44 mg/kg.
Assay [6] has as its system Rattus norvegicus. In words: Antidiabetic activity in n5-STZ rat diabetic model assessed as stimulation of insulin response at 44 mg/kg, po administered as single dose by sandwich ELISA.

Molecules are shown by their SMILES. Activity calls are given as the source filed them. The calls are words filed in the database; no cut-off is given here.

Chain of Dipeptidyl peptidase 4 (P22411 whole entry): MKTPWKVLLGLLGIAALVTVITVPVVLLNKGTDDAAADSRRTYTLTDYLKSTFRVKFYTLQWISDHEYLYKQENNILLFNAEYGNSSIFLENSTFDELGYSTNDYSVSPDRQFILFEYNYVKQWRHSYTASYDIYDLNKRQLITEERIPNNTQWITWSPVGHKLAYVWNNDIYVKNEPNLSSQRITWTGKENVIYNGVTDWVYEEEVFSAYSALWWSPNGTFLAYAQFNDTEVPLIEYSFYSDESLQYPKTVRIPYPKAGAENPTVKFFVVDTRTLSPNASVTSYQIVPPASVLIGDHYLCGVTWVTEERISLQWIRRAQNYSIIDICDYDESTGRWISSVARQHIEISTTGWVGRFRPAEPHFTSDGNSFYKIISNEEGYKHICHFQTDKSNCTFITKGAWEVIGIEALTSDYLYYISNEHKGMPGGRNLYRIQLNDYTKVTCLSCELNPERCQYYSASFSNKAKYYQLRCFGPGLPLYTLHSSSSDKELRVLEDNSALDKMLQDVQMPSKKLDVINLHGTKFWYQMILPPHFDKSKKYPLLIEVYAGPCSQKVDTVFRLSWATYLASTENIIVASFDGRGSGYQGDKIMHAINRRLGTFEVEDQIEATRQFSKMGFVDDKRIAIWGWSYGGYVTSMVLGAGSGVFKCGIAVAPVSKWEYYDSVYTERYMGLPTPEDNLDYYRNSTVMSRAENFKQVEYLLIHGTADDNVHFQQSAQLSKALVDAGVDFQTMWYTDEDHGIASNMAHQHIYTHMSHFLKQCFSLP

Consider `N#C[C@@H]1CSCN1C(=O)CN(N)C1CCN(COc2ccccc2)CC1`, for which the IC50 against Dipeptidyl peptidase 4 stood at 638 nM.
On the same count and under the same terms, in the case of `N#C[C@@H]1CSCN1C(=O)CN(N)C1CCN(CC(=O)NCc2ccccc2F)CC1` it was 510 nM; in that of `N#Cc1cc(CN2CCC(N(N)CC(=O)N3CSC[C@H]3C#N)CC2)ccc1-c1ccccc1`, 1020 nM.
Turning to `N#C[C@@H]1CSCN1C(=O)CN(N)C1CCN(CC(=O)Nc2ccc(F)c(Cl)c2)CC1`, on Dipeptidyl peptidase 4, half-maximal inhibition (IC50) required 359 nM.
At Dipeptidyl peptidase 4, `CCNN(CC(=O)N1CSC[C@H]1C#N)C1CCN(S(C)(=O)=O)CC1` gave an IC50 of 3760 nM.
The compound `CN(CCN)C(=O)N1CCC(N(N)CC(=O)N2CSC[C@H]2C#N)CC1` showed an IC50 on Dipeptidyl peptidase 4 of 1230 nM.
With `N#C[C@@H]1CSCN1C(=O)CN(N)C1CCN(CC(=O)Nc2ccc(S(N)(=O)=O)cc2)CC1` [listing 1 of 2 here], the IC50 at Dipeptidyl peptidase 4 turned out to be 98 nM.
The same measure, in the same setting: in the case of `COc1ccc(S(=O)(=O)N2CCC(N(N)CC(=O)N3CSC[C@H]3C#N)CC2)cc1` it was 6680 nM; in that of `N#C[C@@H]1CSCN1C(=O)CN(N)C1CCN(CC(=O)NC2CCCCC2)CC1`, 506 nM; in that of `CC(C)(C)C(=O)N1CCC(N(N)CC(=O)N2CSC[C@H]2C#N)CC1`, 4150 nM.
Consider `N#C[C@@H]1CSCN1C(=O)CN(N)C1CCN(CC(=O)Nc2ccc(Cl)cn2)CC1`, for which the outcome in the assay on Rattus norvegicus [1], with Rattus norvegicus [2], in the assay with Rattus norvegicus [3], in the assay on Rattus norvegicus [5] and with Rattus norvegicus [6] was Active. In the assay on Rattus norvegicus [4], this compound came in with an inhibition in vivo at 22 mg/kg of 39.8%.
In the case of `N#C[C@@H]1CCCN1C(=O)CN(N)C1CCN(CC(=O)Nc2ccc(Cl)cn2)CC1`, the IC50 at Dipeptidyl peptidase 4 worked out at 3700 nM.
Consider `N#C[C@@H]1CSCN1C(=O)CN(N)C1CCN(CC(=O)Nc2ncccn2)CC1`, for which the half-maximal inhibitory concentration (IC50) against Dipeptidyl peptidase 4 stood at 143 nM.
At Dipeptidyl peptidase 4, `N#C[C@@H]1CSCN1C(=O)CN(N)C1CCN(Cc2ccc(F)cc2)CC1` gave an IC50 of 2230 nM. Against the preceding compound, the IC50 is about 16-fold higher.
In turn, `N#C[C@@H]1CSCN1C(=O)CN(N)C1CCN(C(=O)CN2CCOCC2)CC1` registered an IC50 on Dipeptidyl peptidase 4 of 830 nM.
For the compound `Cc1ccc(S(=O)(=O)N2CCC(N(N)CC(=O)N3CSC[C@H]3C#N)CC2)cc1`, inhibition on Dipeptidyl peptidase 4 was half-maximal at 2700 nM (IC50). Compared with the last compound, the IC50 is about 3.3-fold higher.
In turn, `N#C[C@@H]1CSCN1C(=O)CN(N)C1CCN(Cc2cccnc2)CC1` showed an IC50 against Dipeptidyl peptidase 4 of 4770 nM.
Turning to `N#C[C@@H]1CSCN1C(=O)CN(N)C1CCN(CC(=O)Nc2ccc3c(c2)OCO3)CC1`, at Dipeptidyl peptidase 4, the IC50 is 240 nM.
`N#C[C@@H]1CSCN1C(=O)CN(N)C1CCN(CC(=O)Nc2ccc(C(F)(F)F)cc2)CC1` registered a concentration for half-maximal inhibition (IC50) against Dipeptidyl peptidase 4 of 308 nM.
Still for that read-out and setting: in the case of `N#C[C@@H]1CSCN1C(=O)CN(N)C1CCN(CC(=O)NC2CC2)CC1` [listing 1 of 2 here] it was 217 nM; in that of `N#C[C@@H]1CSCN1C(=O)CN(N)C1CCN(C(=O)N2CCOCC2)CC1`, 790 nM; in that of `N#C[C@@H]1CSCN1C(=O)CN(N)C1CCN(CC(=O)Nc2ccc(S(N)(=O)=O)cc2)CC1` [listing 2 of 2 here], 90 nM.
As for `COC(=O)NN(CC(=O)N1CSC[C@H]1C#N)C1CCN(CC(=O)Nc2ccc(Cl)cn2)CC1`, the midpoint of inhibition at Dipeptidyl peptidase 4, the IC50, lay at 38400 nM.
Consider `N#C[C@@H]1CSCN1C(=O)CN(N)C1CCN(CC(=O)Nc2ncc(Br)s2)CC1`, for which, at Dipeptidyl peptidase 4, inhibition was half-maximal at 226 nM (IC50).
The compound `N#C[C@@H]1CSCN1C(=O)CN(N)C1CCN(CC(=O)NC2CC2)CC1` [listing 2 of 2 here] displayed an IC50 on Dipeptidyl peptidase 4 of 236 nM.
At Dipeptidyl peptidase 4, `N#C[C@@H]1CSCN1C(=O)CN(N)C1CCN(Cc2ccc([N+](=O)[O-])cc2)CC1` displayed an IC50 of 698 nM.
On Dipeptidyl peptidase 4, `N#C[C@@H]1CSCN1C(=O)CN(N)C1CCN(CC(=O)Nc2nc3ccccc3s2)CC1` had an IC50 of 134 nM.
As for `Cc1nc(NC(=O)CN2CCC(N(N)CC(=O)N3CSC[C@H]3C#N)CC2)sc1C`, the IC50 on Dipeptidyl peptidase 4 is 185 nM. The IC50 values of the last two compounds are within 1.5-fold of each other.
On the same count and under the same terms, for `N#Cc1ccc(NC(=O)CN2CCC(N(N)CC(=O)N3CSC[C@H]3C#N)CC2)nc1` [listing 1 of 2 here] the value was 130 nM.
`N#C[C@@H]1CSCN1C(=O)CN(N)C1CCNCC1`: it took 12100 nM to reach half-maximal inhibition against Dipeptidyl peptidase 4 (IC50). This IC50 is about 93-fold higher than that of the compound before.
In turn, `CC(=O)N1CCC(N(N)CC(=O)N2CSC[C@H]2C#N)CC1` came in with an IC50 at Dipeptidyl peptidase 4 of 1530 nM.
On Dipeptidyl peptidase 4, `CC1CCC(C(=O)N2CCC(N(N)CC(=O)N3CSC[C@H]3C#N)CC2)CC1` (some centres not stated) registered an IC50 of 866 nM.
As to `N#Cc1ccc(NC(=O)CN2CCC(N(N)CC(=O)N3CSC[C@H]3C#N)CC2)nc1` [listing 2 of 2 here], at Dipeptidyl peptidase 4, the IC50 is 110 nM.
For `COCCNC(=O)CN1CCC(N(N)CC(=O)N2CSC[C@H]2C#N)CC1`, half-maximal inhibition against Dipeptidyl peptidase 4 (IC50) required 1030 nM.
Still for that read-out and setting: in the case of `N#C[C@@H]1CSCN1C(=O)CN(N)C1CCN(CC(=O)NC23CC4CC(CC(C4)C2)C3)CC1` it was 523 nM; in that of `N#C[C@@H]1CSCN1C(=O)CN(N)C1CCN(C(=O)c2cccc(Cl)c2Cl)CC1`, 1790 nM; in that of `CS(=O)(=O)N1CCC(N(N)CC(=O)N2CSC[C@H]2C#N)CC1`, 1460 nM.
The compound `N#C[C@@H]1CSCN1C(=O)CN(N)C1CCN(S(=O)(=O)c2ccc(Cl)cc2)CC1` came in with an IC50 on Dipeptidyl peptidase 4 of 1450 nM.
With `CC(C)OCCCNC(=O)CN1CCC(N(N)CC(=O)N2CSC[C@H]2C#N)CC1`, the half-maximal inhibitory concentration (IC50) at Dipeptidyl peptidase 4 came out at 468 nM.
The same measure, in the same setting: in the case of `CCNN(CC(=O)N1CSC[C@H]1C#N)C1CCN(CC(=O)Nc2ccc(Cl)cn2)CC1` it was 490 nM; in that of `N#Cc1ccc(NC(=O)CN2CCC(N(N)CC(=O)N3CSC[C@H]3C#N)CC2)cc1`, 200 nM; in that of `N#C[C@@H]1CSCN1C(=O)CN(N)C1CCN(Cc2ccccc2)CC1`, 1630 nM.

What is called IC50 is the point on the concentration scale where inhibition reaches its midpoint. The inhibition in vivo is the share of the control response that was lost under treatment. Higher therefore signals strong suppression.

Values taken from ChEMBL document CHEMBL1153816, “Novel N-substituted 4-hydrazino piperidine derivative as a dipeptidyl peptidase IV inhibitor” (Bioorg Med Chem Lett, 2009).
